Test results reported in US11925696B2, “Carbonic anhydrase IX targeting agents and methods” (priority 2016, dated 2024).
Read-outs that look alike come from different tables or passages of the source.

Columns and labels:
[1] = tested on: HCT-116, HT-29, RCC4 and SK-RC-38 human cancer cell lines; test: Fluorescent microscopy: binding of L2-Rhodamine to CA IX expressing cell lines; type: cell-based
Experimental: After washing, white light and fluorescent microscopy were used to visualize binding.
b. HCT-116, HT-29, RCC4 and SK-RC-38 human cancer cell lines (10^5) were seeded into chambered coverglass plates and allowed to grow to confluence over 48-72 hr. […] After incubation for 1 hour at 37° C., cells were rinsed with incubation solution (2×1.0 mL) to remove unbound conjugate then washed with PBS (1×1.0 mL). Images were acquired using confocal microscopy (FV 1000, Olympus). […] Additionally, the punctate appearance in several of the cell lines is indicative of a rapid internalization of the bound conjugate.

[2] = tested on: HT-29 cells; test: Fluorescent microscopy: binding of rhodamine-labeled CA IX conjugates to HT-29 cells; type: cell-based, human; conditions: 1 hour at 37° C.; alone or plus 100-fold excess CA IX inhibitor; confocal microscopy
Experimental: Fluorescent conjugates were incubated with HT-29 cells in the presence or absence of 100-fold excess unlabeled ligand. After washing, white light and fluorescent microscopy were used to visualize binding.
a. HT-29 cells (10^5) were seeded into chambered coverglass plates and allowed to grow to confluence over 48-72 hr. Spent medium was replaced with 0.5 mL of fresh medium containing 0.5% bovine serum albumin and various concentrations of the dye conjugate (L1-Rhodamine, L2-Rhodamine or L3-Rhodamine) alone or the dye conjugate plus 100-fold excess CA IX inhibitor L1, L2 or L3, where appropriate. After incubation for 1 hour at 37° C., cells were rinsed twice with 1 mL of incubation solution to remove unbound fluorescence and 0.5 ml of fresh incubation medium was added to the wells. Images were acquired using a confocal microscopy (FV 1000, Olympus).

[3] = Maximum tolerated dose; type: in vivo, mice; conditions: for Euthanized (mice) / Healthy (mice) / Sick (mice): thrice weekly tail vein, three mice per group
Experimental: Maximum tolerated dose. Various concentrations of L2-Tubulysin B were administered to male nu/nu mice thrice weekly via tail vein injection. Visibly sick mice were recorded and if necessary euthanized before the end of the experiment. […] Therefore, a dose of 2 μmol/kg was used for further in vivo efficacy studies.

[4] = tested on: HT29 subcutaneous tumors; test: In vivo xenograft tumor efficacy of L2-Tubulysin B; parameters: species or system mice; conditions: for tumor growth: thrice weekly for 3 weeks
Experimental: Once tumors reached a volume of ˜100 mm^3, mice were randomized into various treatment groups (n=3 for each IP group). L2-Tubulysin B (2 μmol/kg) was administered intraperitoneally in the presence or absence of 100-fold excess CA IX ligand L2 every other day for 9 doses. Tumor volume and weight were measured every other day. Error bars represent standard error of the mean. FIG. 10A: (●) PBS Control, (▴) L2-Tubulysin B, (□) Competition. FIG. 10B: (●) PBS Control, (▴) L2-Tubulysin B, (□) Competition.
Once tumors reached a volume of ˜100 mm^3, mice were randomized into various treatment groups (n=5 for each IV group). CA IX-Tubulysin B ([…]) was administered via tail vein injection in the presence or absence of 100-fold excess CA IX ligand every other day for 9 doses. Tumor volume and weight were measured every other day. Error bars represent standard error of the mean. FIG. 11A: (●) PBS Control, (▴) L2-Tubulysin B, (□) Competition. FIG. 11B: (●) PBS Control, (▴) L2-Tubulysin B, (□) Competition.
In vivo xenograft tumor efficacy of L2-Tubulysin B. HT29 cells (5.0×10^6) were injected into the shoulders of 5-6 week old female nu/nu mice. Tumors were measured in two perpendicular directions thrice weekly with vernier calipers and their volumes were calculated as 0.5×L×W^2, where L is the longest axis (in millimeters), and W is the axis perpendicular to L (in millimeters). Dosing of L2-Tubulysin B in the presence or absence of 100-fold excess CA IX inhibitor L2 was initiated when the subcutaneous tumors reached ˜100 mm^3 in volume. Dosing solutions were prepared in saline and filtered through a 0.22 μm filter. Solutions were administered via tail vein injection or intraperitoneally. Each mouse received 2 μmol/kg L2-Tubulysin B per injection. Injections were given thrice weekly for 3 weeks and the mice were weighed concurrently.

[5] = tested on: HT-29 cells; type: cell-based, human; conditions: for IC50: 2 h exposure, additional 66 h in fresh medium, read-out: IC50 (3H-thymidine incorporation)
Experimental: After washing, the cells were incubated for […] and their viability was determined via ^3H-thymidine uptake.
HT-29 cells were seeded on amine-coated 24-well plates and allowed to form monolayers. The spent medium in each well was replaced with fresh medium (0.5 mL) containing various concentrations of Tubulysin B or L2-Tubulysin B in the presence or absence of 100-fold excess CA IX inhibitor L2. After incubating for 2 h at 37° C., cells were rinsed 3 times with fresh medium and then incubated an additional 66 h at 37° C. in fresh medium. Spent medium in each well was again replaced with fresh medium (0.5 mL) containing ^3H-thymidine (1 μCi/ml) and the cells were incubated for an additional 4 h. After washing the cells 3 times with medium, they were dissolved in 0.5 mL of 0.25 M NaOH. Thymidine incorporation was then determined by counting cell-associated radioactivity using a scintillation counter (Packard, Packard Instrument Company). The IC50 value was derived from a plot of the percent of ^3H-thymidine incorporation versus log concentration using Graph Pad Prism 4 and TableCurve 2D software.

[6] = tested on: HT-29 cells; test: 99mTc conjugates binding to HT-29 cells (apparent KD, gamma counting); parameters: species or system human; conditions: for Kd: 99mTc-bound conjugate, 1 h at 37° C., read-out: Binding Affinity (apparent KD)
Experimental: HT-29 cells (150,000 cells/well in 500 μL) were seeded into 24-well Falcon plates and allowed to form monolayers over 48 h. […] After incubating for 1 h at 37° C., cells were rinsed twice with 1 mL of medium and 1 mL of tris buffer. After dissolving in 0.5 mL of 0.25 M NaOH (aq), cells were transferred into individual γ-counter tubes and radioactivity was counted using a γ-counter (Packard, Packard Instrument Company). Apparent KD was calculated by plotting bound radioactivity versus the concentration of radiotracer using GraphPad Prism 4.

[7] = tested on: HT-29 xenograft tumors; conditions: for relative average radioactive intensity in the tumor: 10 nmol tail vein, kidneys shielded
Experimental: Whole animal images were taken 4 hours post-injection. […] The percentage of the injected dose per gram of tissue was determined and plotted. Error bars represent standard deviation. (□) Competition; (▪) L2-PEG36-EC20. […] Whole animal images were taken 9 hours post-injection. […] The percentage of the injected dose per gram of tissue was determined and plotted. Error bars represent standard deviation. (□) Competition; (▪) L2-PEG36-EC20. […] Whole animal images were taken 24 hours post-injection. […] The percentage of the injected dose per gram of tissue was determined and plotted. Error bars represent standard deviation. (□) Competition; (▪) L2-PEG36-EC20. […] At various times, animals were sacrificed by CO2 asphyxiation. […] Three mice bearing HT-29 xenografts were administered 10 nmol of conjugate via tail vein injection while an additional three mice also received 100-fold excess unconjugated inhibitor. A single mouse from each of the two groups was sacrificed for whole animal imaging and tissue/organ biodistribution analysis at 4, 9 and 24 hours post injection.

Q: With `CN(C)c1ccc2c(-c3ccc(C(=O)NCCCCCNC(=O)CN(CCN(CC(=O)O)CC(=O)Nc4ccc(S(N)(=O)=O)cc4)CC(=O)Nc4ccc(S(N)(=O)=O)cc4)cc3C(=O)O)c3ccc(=[N+](C)C)cc-3oc2c1` [Conjugate L2-Rhodamine] as the compound, how does the “binding in the presence of competing unconjugated CA IX inhibitor” value ([1]; competing unconjugated CA IX inhibitor as printed (method: 100-fold excess L2)) read?
A: The value was “essentially no binding was observed”.

Q: And the “binding to cell lines” value ([1]; dye conjugate alone, 1 hour at 37° C., confocal microscopy)?
A: Its value is “binding is observed in every cell line tested”.

Q: And the “binding to HT-29 cells and competition by excess unconjugated inhibitor” value [2]?
A: Its value is “bound the cells and were competed in the presence of excess unconjugated inhibitor”.

Q: What does the source list for `CCCC(=O)OCN(C(=O)[C@@H](NC(=O)[C@H]1CCCCN1C)[C@@H](C)CC)[C@H](C[C@@H](OC(C)=O)c1nc(C(=O)N[C@@H](Cc2ccc(O)cc2)C[C@H](C)C(=O)NNC(=O)OCCSSC[C@H](NC(=O)[C@H](CC(=O)O)NC(=O)[C@@H](N)CNC(=O)CCOCCOCCOCCOCCOCCOCCOCCOCCOCCOCCOCCOCCNC(=O)CN(CCN(CC(=O)O)CC(=O)Nc2ccc(S(N)(=O)=O)cc2)CC(=O)Nc2ccc(S(N)(=O)=O)cc2)C(=O)O)cs1)C(C)C` [L2-Tubulysin B]?
A: adverse events ([3]; 1 μmol/kg): no adverse events were identified; Euthanized (mice) ([3]; 1 μmol/kg): 0; Healthy (mice) ([3]; 1 μmol/kg): 3; Sick (mice) ([3]; 1 μmol/kg): 0; Euthanized (mice) ([3]; 3 μmol/kg): 0; Healthy (mice) ([3]; 3 μmol/kg): 2; Sick (mice) ([3]; 3 μmol/kg): 1; Euthanized (mice) ([3]; 5 μmol/kg): 2; Healthy (mice) ([3]; 5 μmol/kg): 0; Sick (mice) ([3]; 5 μmol/kg): 1; signs of toxicity ([3]; highest dose): all mice showed signs of toxicity; tumor growth with 100-fold excess CA IX inhibitor L2 ([4]; 2 μmol/kg): growth of the tumors was similar to the control group; tumor growth ([4]; 2 μmol/kg intraperitoneally): essentially halted tumor growth; tumor growth ([4]; 2 μmol/kg via tail vein injection): essentially halted tumor growth; gross toxicity ([4]; 2 μmol/kg, both routes): no gross toxicity was observed; loss of weight ([4]; 2 μmol/kg, both routes): no loss of weight was observed; IC50 [5]: 4.4 nM; cytotoxic effect with 100-fold excess of the unconjugated inhibitor ([5]; HT-29 cells): completely abrogated

Q: Which IC50 [5] does the source give for `CCCC(=O)OCN(C(=O)[C@@H](NC(=O)[C@H]1CCCCN1C)[C@@H](C)CC)[C@H](C[C@@H](OC(C)=O)c1nc(C(=O)N[C@@H](Cc2ccc(O)cc2)C[C@H](C)C(=O)O)cs1)C(C)C` [Tubulysin B, reference compound] here?
A: The IC50 was 0.08 nM.

Q: Which “binding to HT-29 cells and competition by excess unconjugated inhibitor” value [2] does the source give for `CN(C)c1ccc2c(-c3ccc(C(=O)NCCOCCOCCOCCOCCC(=O)Nc4cccc(NC(=O)Nc5ccc(S(N)(=O)=O)cc5)c4)cc3C(=O)O)c3ccc(=[N+](C)C)cc-3oc2c1` [Conjugate L3-Rhodamine] here?
A: The value was “bound the cells and were competed in the presence of excess unconjugated inhibitor”.

Q: Which Kd [6] does the source give for `N[C@H](CNC(=O)CCOCCOCCOCCOCCOCCOCCOCCOCCOCCOCCOCCOCCNC(=O)CCC(=O)Nc1cccc(NC(=O)Nc2ccc(S(N)(=O)=O)cc2)c1)C(=O)N[C@@H](CC(=O)O)C(=O)NC[C@H](CS)C(=O)O` [L3-PEG12-EC20] here?
A: The Kd was 146 nM.

Q: And the “decrease of binding by addition of the PEG12-EC20” value ([6]; binding affinity of conjugate versus reported Ki of original ligand)?
A: The value was 162 fold.

Q: What does the source list for `N[C@H](CNC(=O)CCOCCOCCOCCOCCOCCOCCOCCOCCOCCOCCOCCOCCOCCOCCOCCOCCOCCOCCOCCOCCOCCOCCOCCOCCOCCOCCOCCOCCOCCOCCOCCOCCOCCOCCOCCOCCNC(=O)CN(CCN(CC(=O)O)CC(=O)Nc1ccc(S(N)(=O)=O)cc1)CC(=O)Nc1ccc(S(N)(=O)=O)cc1)C(=O)N[C@@H](CC(=O)O)C(=O)NC[C@H](CS)C(=O)O` [L2-PEG36-EC20]?
A: tumor intensity with concurrent 100-fold excess unconjugated inhibitor ([7]; 4, 9 and 24 hours post injection): did not exhibit any intensity in the tumor; relative average radioactive intensity in the tumor ([7]; 4 hours post injection): ~1300; relative average radioactive intensity in the tumor ([7]; 9 hours post injection): 750; relative average radioactive intensity in the tumor ([7]; 24 hours post injection): 350; Kd [6]: 57 nM
